ChEMBL document CHEMBL6153062, “Design, Synthesis, and Unprecedented Interactions of Covalent Dipeptide-Based Inhibitors of SARS-CoV-2 Main Protease and Its Variants Displaying Potent Antiviral Activity” (J Med Chem, 2025)

What was measured:
[1] = Inhibition of SARS-CoV-2 MPro using Boc-Abu-Tle-Leu-Gln-AMC as substrate preincubated for 5 mins followed by substrate addition and measured after 60 mins; design: species or system Severe acute respiratory syndrome coronavirus 2
SARS-CoV-2 [2] = type: functional, organism-based; conditions: Severe acute respiratory syndrome coronavirus 2, B.1.513, Calu-3
Calu-3 = assay: Cytotoxicity against human Calu-3 cells assessed as reduction in cell viability at 10 uM measured after 24 hrs by celltiter-glo assay; type: functional, cell-based
[3] = Inhibition of recombinant SARS-CoV-1 Main protease using Ac-Abu-Tle-Leu-Gln-ACC as substrate incubated for 15 mins by fluorescence based microplate reader analysis; design: species or system Severe acute respiratory syndrome-related coronavirus
[4] = Inhibition of MERS-CoV Main protease using Ac-Abu-Tle-Leu-Gln-ACC as substrate incubated for 15 mins by fluorescence based microplate reader analysis; design: species or system Middle East respiratory syndrome-related coronavirus
SARS-CoV-2 [5] = assay: microbe, parasite or virus in culture; conditions: Severe acute respiratory syndrome coronavirus 2
[6] = system: Severe acute respiratory syndrome coronavirus 2; assay: Inhibition of SARS-CoV-2 MPro using Boc-Abu-Tle-Leu-Gln-AMC as substrate assessed as Kinact/Ki ratio preincubated for 5 mins followed by substrate addition and measured after 60 mins; conditions: time 65.0 min
[7] = system: Middle East respiratory syndrome-related coronavirus; assay: Inhibition of MERS-CoV Main protease using Ac-Abu-Tle-Leu-Gln-ACC as substrate at 10 uM incubated for 15 mins by fluorescence based microplate reader analysis relative to control
[8] = Irreversible inhibition of SARS-CoV-2 MPro using Boc-Abu-Tle-Leu-Gln-AMC as substrate preincubated for 5 mins followed by substrate addition and measured after 60 mins; design: species or system Severe acute respiratory syndrome coronavirus 2
[9] = Reversible inhibition of SARS-CoV-2 MPro using Boc-Abu-Tle-Leu-Gln-AMC as substrate preincubated for 5 mins followed by substrate addition and measured after 60 mins; design: species or system Severe acute respiratory syndrome coronavirus 2

Structure (SMILES) | IC50 [1] [nM] | EC50 (SARS-CoV-2 [2]) [nM] | Activity (Calu-3) | IC50 [3] [nM] | Ratio [6] [M⁻¹ s⁻¹] | further results
C=CC(=O)[C@H](Cc1ccccc1)NC(=O)[C@H](CC(C)C)NC(=O)COc1ccc(Cl)cc1 | 97 | 181 | Not toxic | 203 | – | IC50 [4]: 1420 nM
CC(C)(C)[C@H](NC(=O)C(F)(F)F)C(=O)N1CC2(C[C@H]1C(=O)N[C@H](C#N)C[C@@H]1CCNC1=O)SCCS2 | – | – | – | – | – | EC50 (SARS-CoV-2 [5]): 30 nM
C=CC(=O)[C@H](Cc1ccccc1)NC(=O)[C@H](CC(C)C)NC(=O)c1cc2ccccc2[nH]1 | 117 | 2.57 | Not toxic | 357 | – | IC50 [4]: 69.7 nM
C=CC(=O)[C@H](Cc1ccccc1)NC(=O)[C@H](CC(C)C)NC(=O)c1cc(C)on1 | 449 | – | – | – | 21300 | –
C=CC(=O)[C@H](Cc1ccccc1)NC(=O)[C@H](CC(C)C)NC(=O)/C=C/c1ccc(Cl)cc1 | 63 | 230 | Not toxic | – | – | –
C=CC(=O)[C@H](Cc1ccccc1)NC(=O)[C@H](CC(C)C)NC(=O)/C=C/c1ccc(OC(F)(F)F)cc1 | 481 | 34.4 | Not toxic | 72 | – | IC50 [4]: > 10000 nM; inhibition [7]: 32%
C=CC(=O)[C@H](Cc1ccccc1)NC(=O)[C@H](CC(C)C)NC(=O)COc1cccc(OC)c1 | 89 | 557 | Not toxic | 57 | – | IC50 [4]: 565 nM
C=CC(=O)[C@H](Cc1ccccc1)NC(=O)[C@H](CC(C)C)NC(=O)C1CC1c1ccccc1 (stereo not given in full) | 138 | – | – | – | 14500 | –
C=CC(=O)[C@H](Cc1ccccc1)NC(=O)[C@H](CC(C)C)NC(=O)/C=C/c1ccc(N(C)C)cc1 | 279 | 320 | Not toxic | 57 | – | IC50 [4]: > 10000 nM; inhibition [7]: 40%
C=CC(=O)[C@H](Cc1ccccc1)NC(=O)[C@H](CC(C)C)NC(=O)c1csc(-c2ccccc2)n1 | 151 | – | – | – | 32500 | –
C=CC(=O)[C@H](Cc1ccccc1)NC(=O)[C@H](CC(C)C)NC(=O)c1ccc(-c2ccccc2)o1 | 363 | – | – | 22 | 16400 | IC50 [4]: 538 nM
CC(C)C[C@H](NC(=O)CSc1ccccc1)C(=O)N[C@@H](Cc1ccccc1)C(=O)c1nc2ccccc2s1 | > 10000 | – | – | – | – | –
C=CC(=O)[C@H](Cc1ccccc1)NC(=O)[C@H](CC(C)C)NC(=O)CSc1cccc(OC)c1 | – | 173 | Not toxic | – | – | IC50 [8]: 47 nM
C=CC(=O)[C@H](Cc1ccccc1)NC(=O)[C@H](CC(C)C)NC(=O)/C=C/c1ccc(Cl)cc1Cl | 338 | – | – | – | 7000 | –
C=CC(=O)[C@H](Cc1ccccc1)NC(=O)[C@H](CC(C)C)NC(=O)C1CCc2ccccc2O1 (stereo not given in full) | 227 | – | – | – | 14900 | –
C=CC(=O)[C@H](Cc1ccccc1)NC(=O)[C@H](CC(C)C)NC(=O)CCc1ccc(N(C)C)cc1 | 152 | – | – | – | 14700 | –
C=CC(=O)[C@H](Cc1ccccc1)NC(=O)[C@H](CC(C)C)NC(=O)c1cc2ccccc2s1 | 221 | – | – | – | 21700 | –
C=CC(=O)[C@H](Cc1cccc(F)c1)NC(=O)[C@H](CC(C)C)NC(=O)CSc1ccccc1 | – | 4.13 | Not toxic | – | – | IC50 [8]: 21 nM
C=CC(=O)[C@H](Cc1ccccc1F)NC(=O)[C@H](CC(C)C)NC(=O)COc1ccc(Cl)cc1Cl | 159 | – | – | – | 13300 | –
C=CC(=O)[C@H](Cc1ccccc1)NC(=O)[C@H](CC(C)C)NC(=O)COc1ccccc1 | – | 12.4 | Not toxic | 27 | – | IC50 [9]: 62 nM; IC50 [4]: 138 nM
C=CC(=O)[C@H](Cc1ccccc1)NC(=O)[C@H](CC(C)C)NC(=O)c1sc(-c2ccccc2)nc1C | 117 | – | – | – | 29000 | –

Structure (SMILES) | IC50 [1] [nM] | EC50 (SARS-CoV-2 [2]) [nM] | Activity (Calu-3) | IC50 [3] [nM] | Ratio [6] [M⁻¹ s⁻¹] | further results
C=CC(=O)[C@H](Cc1cccc(Cl)c1)NC(=O)[C@H](CC(C)C)NC(=O)COc1ccc(Cl)cc1Cl | – | – | Not toxic | 13 | – | IC50 [9]: 37 nM; IC50 [4]: > 10000 nM; inhibition [7]: 44%
C=CC(=O)[C@H](Cc1ccccc1)NC(=O)[C@H](CC(C)C)NC(=O)CCc1ccc(Cl)cc1Cl | – | 111 | Not toxic | – | – | IC50 [9]: 74 nM
C=CC(=O)[C@H](Cc1cccc(F)c1)NC(=O)[C@H](CC(C)C)NC(=O)COc1ccc(Cl)cc1Cl | – | 3410 | Not toxic | – | – | IC50 [9]: 44 nM
C=CC(=O)[C@H](Cc1c[nH]c2ccccc12)NC(=O)[C@H](CC(C)C)NC(=O)COc1ccc(Cl)cc1Cl | 316 | – | – | 58 | – | IC50 [4]: 1080 nM
C=CC(=O)[C@H](Cc1ccccc1)NC(=O)[C@H](CC(C)C)NC(=O)c1cc2ccccc2n1C | – | 395 | Not toxic | – | – | IC50 [9]: 96 nM
C=CC(=O)[C@H](Cc1ccccc1)NC(=O)[C@H](CC(C)C)NC(=O)CCc1ccc(OC(F)(F)F)cc1 | 184 | – | – | – | 14000 | –
O=C(NC1CCCC1)C(=O)[C@H](C[C@@H]1CCNC1=O)NC(=O)[C@@H]1[C@H]2CCC[C@H]2CN1C(=O)[C@@H](NC(=O)C(F)(F)F)C1CCCCC1 | – | – | – | – | – | EC50 (SARS-CoV-2 [5]): 90 nM
C=CC(=O)[C@H](Cc1ccccc1)NC(=O)[C@H](CC(C)C)NC(=O)C(C)(C)Sc1ccccc1 | 71 | 86.2 | Not toxic | – | – | IC50 [9]: 71 nM
CC(C)C[C@H](NC(=O)c1cc2ccccc2o1)C(=O)N[C@@H](Cc1ccccc1)C(=O)C=CN(C)C | > 10000 | – | – | – | – | –
C=CC(=O)[C@H](Cc1cccc(Cl)c1)NC(=O)[C@H](CC(C)C)NC(=O)COc1cccc(OC)c1 | – | 45.2 | Not toxic | – | – | IC50 [9]: 24 nM
CC(C)C[C@H](NC(=O)c1cc2ccccc2s1)C(=O)N[C@@H](Cc1ccccc1)C(=O)C=CN(C)C | 18900 | – | – | – | – | –
C=CC(=O)[C@H](Cc1ccccc1)NC(=O)[C@H](CC(C)C)NC(=O)c1cc(C(C)(C)C)nn1C | 599 | – | – | – | 5400 | –
CC(C)C(=O)OC[C@H]1O[C@@H](n2cc/c(=N\O)[nH]c2=O)[C@H](O)[C@@H]1O [MOLNUPIRAVIR] | – | 3.23 | – | – | – | –
C=CC(=O)[C@H](Cc1ccccc1)NC(=O)[C@H](CC(C)C)NC(=O)/C=C/c1cc(OC)cc(OC)c1 | 725 | – | – | 23 | 9130 | IC50 [4]: > 10000 nM; inhibition [7]: 48%
C=CC(=O)[C@H](Cc1ccccc1)NC(=O)[C@H](CC(C)C)NC(=O)c1cc2ccccc2o1 | 405 | – | – | 20 | 9900 | IC50 [4]: 942 nM
C=CC(=O)[C@H](Cc1ccccc1)NC(=O)[C@H](CC(C)C)NC(=O)COc1cc(Cl)c(Cl)cc1Cl | 134 | – | – | – | 26500 | –
C=CC(=O)[C@H](Cc1ccccc1)NC(=O)[C@H](CC(C)C)NC(=O)/C=C/c1ccccc1 | 131 | – | – | 110 | 9630 | –
C=CC(=O)[C@H](Cc1ccccc1)NC(=O)[C@H](CC(C)C)NC(=O)c1ccc(-c2ccccc2)s1 | 183 | – | – | – | 15500 | –
CC(C)C[C@H](NC(=O)OCc1ccccc1)C(=O)N[C@H](C=O)C[C@@H]1CCNC1=O | – | – | – | 44 | – | IC50 [4]: 78 nM
C=CC(=O)[C@H](Cc1ccccc1)NC(=O)[C@H](CC(C)C)NC(=O)COc1cccc(N(C)C)c1 | 131 | – | Not toxic | – | 22600 | –
C=CC(=O)[C@H](Cc1ccccc1)NC(=O)[C@H](CC(C)C)NC(=O)CCc1ccccc1 | 187 | – | – | – | 16100 | –
